In patent US9006210B2, “Compositions and methods for treating corneal inflammation” (Case Western Reserve University, priority 2008, dated 2015):
“Also recorded” adds a separate entry of the source.

Legend:
TLR2 [1] = molecular target: T1, TLR2 (Homo sapiens, UniProt O60603); test: Pam3Cys-induced IL-8 production by macrophages (U937); format: cell-based; conditions: 500 ng/ml Pam3Cys, 3 h
T1 construct: endogenous in cells; host or cells: HCE-T human corneal epithelial cell line (ATCC)
Method: (§1) The U937 macrophage-cell line was cultured in RPMI medium (GIBCO) with 10% FBS, and 5×10^4 cells/well were added to 96-well plates. The human neutrophil-like cell line (HL-60) was maintained in RPMI with 10% FBS, and incubated five days in 1.2% DMSO to generate the neutrophil phenotype.
(§2) All cells were incubated with eritoran or placebo, followed by stimulation with LPS or Pam3CysK4 at optimal concentrations for each cells line (noted in results). After 3 h, cell-free supernatants were collected, and CXCL8/IL-8 was measured by ELISA (R&D Systems).
(§3) Cell lines derived from human corneal epithelial cells (HCE-T), macrophages (U937) and neutrophils (HL-60) were stimulated with LPS or Pam3Cys in the presence of eritoran tetrasodium or placebo. After 3 h (U937 and HL-60 cells) or 24 h (HCE-T cell), IL-8 levels in culture supernatants were quantified by ELISA. […] FIGS. 16 and 17 show macrophages stimulated with 10 ng/ml LPS or 500 ng/ml Pam3Cys in the presence of Eritoran or placebo. FIGS. 18 and 19 show neutrophils stimulated with 1 ng/ml LPS or 500 ng/ml Pam3Cys and Eritoran or placebo. LPS concentrations were based on preliminary data showing optimal IL-8 production. […] Graphs are mean+/−SEM of three wells per sample. Experiments were repeated three times with similar results.

corneal epithelium = tested on: corneal epithelium
Method: The cell viability in vitro was measured by trypan blue. The corneal sections were incubated with terminal deoxynucleotidyl transferase-mediated dUTP nick end labeling (TUNEL) reagents according to manufacturer's directions (Roche, Penzberg, Germany), and the number of TUNEL positive cells in the cornea was quantified by fluorescence microscopy.
Mice were pre-treated with 2.2 μg eritoran tetrasodium prior to LPS, as described above, and eyes were snap frozen. We used a TUNEL assay on 5 μm corneal sections to identify apoptotic cells. Total cells were identified using DAPI.

TLR2 [2] = molecular target: T2, TLR2 (Mus musculus, UniProt Q9QUN7); test: Pam3Cys-induced CXCL1/KC production in the cornea, mouse contact lens model; format: in vivo, C57BL/6 mice; conditions: topical pre-treatment 1 h before Pam3Cys; ELISA 4 h after stimulation; vs placebo
T2 construct: Corneas of C57BL/6 mice were abraded with three parallel, superficial scratches; from tissue; host or cells: cornea of living C57BL/6 mice
T2 sequence (Q9QUN7 25-784): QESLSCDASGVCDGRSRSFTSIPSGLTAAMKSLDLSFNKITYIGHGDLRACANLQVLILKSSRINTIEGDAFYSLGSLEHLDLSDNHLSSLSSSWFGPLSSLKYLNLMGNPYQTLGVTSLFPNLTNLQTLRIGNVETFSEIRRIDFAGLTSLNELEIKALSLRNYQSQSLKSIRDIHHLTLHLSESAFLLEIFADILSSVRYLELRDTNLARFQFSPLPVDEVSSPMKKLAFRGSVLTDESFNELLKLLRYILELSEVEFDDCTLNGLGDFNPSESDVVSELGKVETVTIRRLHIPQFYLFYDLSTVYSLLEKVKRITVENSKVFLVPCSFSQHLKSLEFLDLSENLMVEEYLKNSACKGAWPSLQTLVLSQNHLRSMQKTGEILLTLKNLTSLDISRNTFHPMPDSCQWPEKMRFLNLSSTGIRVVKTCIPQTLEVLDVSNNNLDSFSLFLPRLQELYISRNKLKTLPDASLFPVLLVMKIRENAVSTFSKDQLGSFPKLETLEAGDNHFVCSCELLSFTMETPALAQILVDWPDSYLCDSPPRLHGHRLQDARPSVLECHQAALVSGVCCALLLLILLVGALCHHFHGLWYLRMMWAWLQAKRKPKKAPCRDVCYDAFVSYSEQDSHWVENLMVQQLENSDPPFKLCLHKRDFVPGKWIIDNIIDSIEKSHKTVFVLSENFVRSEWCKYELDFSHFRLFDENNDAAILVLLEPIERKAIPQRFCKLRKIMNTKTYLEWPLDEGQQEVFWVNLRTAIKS
Method: (§5) C57BL/6 mice (6-8 weeks old) were obtained from The Jackson Laboratory (Bar Harbor, Me.). Mice were anesthetized by intraperitoneal injection of 0.4 ml 2,2,2-tribromoethanol (TBE). A 26 gauge needle was used to make three parallel abrasions in the corneal epithelium as described in our previous studies. Eritoran tetrasodium or placebo at concentrations indicated for each experiment was added topically, and a 2 mm diameter punch from a normal contact lens (LOTRAFILCON A; CIBA VISION) was added to the corneal surface (See FIG. 1). After an additional 1 h, the lens was briefly removed, and 2 μl LPS (20 mg/ml) or Pam3Cys (5 mg/ml) was placed on the corneal surface. The contact lens button was then replaced, and after an additional 1 h, the lens was removed and the mice were allowed to recover from anesthesia. In some experiments, the order of agonist and antagonist was reversed, or both were given simultaneously.
Briefly, Corneas of C57BL/6 mice were abraded with three parallel, superficial scratches. 2 μl of 350 mg/ml Eritoran or placebo was added topically, and a 2 mm diameter punch from a soft contact lens was placed on the corneal surface as shown in FIG. 1. […] After 1 h, the lens was removed, and 3 h later (4 h after stimulation), and corneas were dissected, homogenized, and CXCL1/KC was measured by ELISA. […]

TLR4 [3] = molecular target: T3, TLR4 (Homo sapiens, UniProt O00206+Q9Y6Y9); test: LPS-induced IL-8 production by macrophages (U937); format: cell-based; design: endogenous in cells; conditions: for LPS-induced IL-8 production: U937 macrophages, 10 ng/ml LPS, 3 h
T3 sequence (O00206 24-839): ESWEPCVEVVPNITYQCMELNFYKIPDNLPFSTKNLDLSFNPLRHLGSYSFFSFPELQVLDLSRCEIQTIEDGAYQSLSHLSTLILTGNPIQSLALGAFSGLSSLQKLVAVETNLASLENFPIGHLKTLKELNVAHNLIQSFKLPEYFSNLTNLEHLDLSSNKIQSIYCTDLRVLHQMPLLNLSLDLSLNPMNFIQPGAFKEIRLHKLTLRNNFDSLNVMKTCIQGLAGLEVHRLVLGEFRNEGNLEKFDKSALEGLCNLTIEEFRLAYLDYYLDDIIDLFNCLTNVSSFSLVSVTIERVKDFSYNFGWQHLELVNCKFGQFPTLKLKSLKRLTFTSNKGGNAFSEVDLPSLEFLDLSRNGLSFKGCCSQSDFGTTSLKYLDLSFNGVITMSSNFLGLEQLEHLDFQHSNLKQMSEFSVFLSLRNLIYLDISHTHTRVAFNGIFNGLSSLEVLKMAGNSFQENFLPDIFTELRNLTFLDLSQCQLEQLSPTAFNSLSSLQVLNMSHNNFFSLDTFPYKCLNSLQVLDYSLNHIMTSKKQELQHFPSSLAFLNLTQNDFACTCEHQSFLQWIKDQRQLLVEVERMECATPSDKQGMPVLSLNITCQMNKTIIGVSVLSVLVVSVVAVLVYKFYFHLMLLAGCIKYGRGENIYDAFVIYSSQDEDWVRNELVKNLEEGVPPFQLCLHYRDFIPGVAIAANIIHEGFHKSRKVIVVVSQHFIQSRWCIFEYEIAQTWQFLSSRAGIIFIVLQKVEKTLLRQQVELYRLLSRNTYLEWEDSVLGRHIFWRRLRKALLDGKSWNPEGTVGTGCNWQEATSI
T3 sequence (Q9Y6Y9 19-160): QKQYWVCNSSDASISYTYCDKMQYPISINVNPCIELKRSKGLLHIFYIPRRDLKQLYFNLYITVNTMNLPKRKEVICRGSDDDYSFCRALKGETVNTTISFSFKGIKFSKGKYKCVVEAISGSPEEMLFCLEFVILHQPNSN
Method: as §1, §2, §3

TLR2 [4] = molecular target: T1, TLR2; test: Pam3Cys-induced IL-8 production by neutrophils (HL-60); format: cell-based; conditions: HL-60 neutrophils; 500 ng/ml Pam3Cys; 3 h
Method: as §1, §2, §3

TLR4 [5] = molecular target: T3, TLR4; test: LPS-induced IL-8 production by neutrophils (HL-60); format: cell-based; design: endogenous in cells; host or cells: HL-60 (five days in 1.2% DMSO); conditions: for LPS-induced IL-8 production: HL-60 neutrophils, 1 ng/ml LPS, 3 h
Method: as §1, §2, §3

TLR4 [6] = molecular target: T4, TLR4 (Mus musculus, UniProt Q9JHF9+Q9QUK6); design: species or system C57BL/6 mice; conditions: in vivo
T4 construct: Corneas of C57BL/6 mice were abraded with three parallel, superficial scratches; from tissue; host or cells: cornea of living C57BL/6 mice
T4 sequence (Q9QUK6 26-835): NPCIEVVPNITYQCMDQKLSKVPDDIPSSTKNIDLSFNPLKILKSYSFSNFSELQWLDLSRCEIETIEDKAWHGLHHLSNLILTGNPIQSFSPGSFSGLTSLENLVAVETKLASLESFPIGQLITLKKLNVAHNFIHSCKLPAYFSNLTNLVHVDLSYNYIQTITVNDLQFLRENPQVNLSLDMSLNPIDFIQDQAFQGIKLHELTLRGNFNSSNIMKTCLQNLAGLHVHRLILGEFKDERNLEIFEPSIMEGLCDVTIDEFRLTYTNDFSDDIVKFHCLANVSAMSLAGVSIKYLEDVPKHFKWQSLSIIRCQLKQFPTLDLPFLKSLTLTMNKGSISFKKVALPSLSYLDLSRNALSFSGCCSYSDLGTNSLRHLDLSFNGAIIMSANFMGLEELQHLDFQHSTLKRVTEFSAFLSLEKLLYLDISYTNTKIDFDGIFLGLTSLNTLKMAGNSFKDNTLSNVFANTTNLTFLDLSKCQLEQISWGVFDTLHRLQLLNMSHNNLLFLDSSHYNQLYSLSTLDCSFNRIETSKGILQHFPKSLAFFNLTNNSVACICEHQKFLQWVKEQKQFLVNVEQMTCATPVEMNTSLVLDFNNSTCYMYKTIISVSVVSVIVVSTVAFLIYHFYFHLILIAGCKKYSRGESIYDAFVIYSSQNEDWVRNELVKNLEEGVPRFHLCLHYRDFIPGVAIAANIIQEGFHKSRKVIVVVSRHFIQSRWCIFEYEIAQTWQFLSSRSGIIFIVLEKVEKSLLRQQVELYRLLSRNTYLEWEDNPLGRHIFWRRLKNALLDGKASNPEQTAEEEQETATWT
T4 sequence (Q9JHF9 19-160): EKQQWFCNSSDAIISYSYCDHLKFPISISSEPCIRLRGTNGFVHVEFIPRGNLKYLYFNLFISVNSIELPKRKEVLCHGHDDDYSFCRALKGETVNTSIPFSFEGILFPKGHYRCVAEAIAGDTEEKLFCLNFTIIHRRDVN

TLR2 [7] = molecular target: T2, TLR2; test: Pam3Cys-induced contact lens corneal inflammation (neutrophil infiltrate, reflectivity); format: in vivo, C57BL/6 mice
TLR2 [8] = molecular target: T1, TLR2; test: Pam3Cys-induced IL-8 production by human corneal epithelial cells (HCE-T); format: cell-based; conditions: 500 ng/ml Pam3Cys, 24 h
Method: (§4) The SV-40 transfected human corneal epithelial cell line (HCE-T) was obtained from ATCC. Before stimulation, HCE cells were plated into 48 well plates and underwent epidermal growth factor starvation overnight. As HCE cells require exogenous MD-2 to respond to LPS, cells were incubated 1 h with 200 ng/ml recombinant human MD-2 (R&D Systems, Minneapolis, Minn.) prior to stimulation with ultrapure LPS (TLR4-specific, Escherichia coli K12, Invivogen; San Diego, Calif.). HCE cells were also incubated with Pam3CysK4 (EMC Microcollections, Germany) in the absence of MD-2.
as §2
Cell lines derived from human corneal epithelial cells (HCE-T), macrophages (U937) and neutrophils (HL-60) were stimulated with LPS or Pam3Cys in the presence of eritoran tetrasodium or placebo. After 3 h (U937 and HL-60 cells) or 24 h (HCE-T cell), IL-8 levels in culture supernatants were quantified by ELISA. […] FIGS. 16 and 17 show macrophages stimulated with 10 ng/ml LPS or 500 ng/ml Pam3Cys in the presence of Eritoran or placebo. FIGS. 18 and 19 show neutrophils stimulated with 1 ng/ml LPS or 500 ng/ml Pam3Cys and Eritoran or placebo. […]

TLR4/MD-2 = molecular target: T5, TLR4/MD-2 (Mus musculus, UniProt Q9JHF9+Q9QUK6); design: species or system C57BL/6 mice; conditions: in vivo
T5 construct: from tissue; host or cells: cornea of living C57BL/6 mice
T5 sequence (Q9QUK6 26-835): T4 sequence (Q9QUK6 26-835)
T5 sequence (Q9JHF9 19-160): T4 sequence (Q9JHF9 19-160)

TLR4 [9] = molecular target: T4, TLR4; design: species or system C57BL/6 mice; conditions: in vivo; remark: listed apart in the source
Method: as §5
Briefly, Corneas of C57BL/6 mice were abraded with three parallel, superficial scratches. 2 μl of 350 mg/ml Eritoran or placebo was added topically, and a 2 mm diameter punch from a soft contact lens was placed on the corneal surface as shown in FIG. 1. […] After 1 h, the lens was removed, and 3 h later (4 h after stimulation), and corneas were dissected, homogenized, and CXCL1/KC was measured by ELISA.

TLR4 [10] = molecular target: T3, TLR4; test: LPS-induced IL-8 production by human corneal epithelial cells (HCE-T); format: cell-based; design: endogenous in cells; host or cells: HL-60 (five days in 1.2% DMSO); conditions: for LPS-induced IL-8 production: HCE-T cells, 900 ng/ml LPS with 0.2 μg/ml MD-2, 24 h, ELISA
Method: as §4, §2, §3

Gram negative Lipid A = conditions: cited from earlier work
[11] = pretreatment with the highest concentration, Pam3Cys stimulation

T1 sequence (O60603 21-784): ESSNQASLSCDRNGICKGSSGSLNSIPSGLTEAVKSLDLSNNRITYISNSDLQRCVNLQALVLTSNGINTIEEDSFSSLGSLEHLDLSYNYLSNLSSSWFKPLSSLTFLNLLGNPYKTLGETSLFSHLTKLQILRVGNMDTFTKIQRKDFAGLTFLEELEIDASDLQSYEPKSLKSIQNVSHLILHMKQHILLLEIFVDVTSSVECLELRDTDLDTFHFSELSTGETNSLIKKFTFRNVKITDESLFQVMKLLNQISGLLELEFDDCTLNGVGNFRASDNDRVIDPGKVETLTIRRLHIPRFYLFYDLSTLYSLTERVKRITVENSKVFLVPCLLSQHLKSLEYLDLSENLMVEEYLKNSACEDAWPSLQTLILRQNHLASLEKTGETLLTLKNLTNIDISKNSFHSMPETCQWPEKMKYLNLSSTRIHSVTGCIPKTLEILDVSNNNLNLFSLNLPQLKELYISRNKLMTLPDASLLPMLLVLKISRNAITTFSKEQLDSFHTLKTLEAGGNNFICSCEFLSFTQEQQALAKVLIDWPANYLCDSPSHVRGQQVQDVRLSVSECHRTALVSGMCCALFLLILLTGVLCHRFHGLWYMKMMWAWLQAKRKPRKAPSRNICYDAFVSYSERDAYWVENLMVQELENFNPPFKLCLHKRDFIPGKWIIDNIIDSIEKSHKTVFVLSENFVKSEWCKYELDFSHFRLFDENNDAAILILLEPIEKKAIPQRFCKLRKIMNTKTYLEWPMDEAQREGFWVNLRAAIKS

Compound: CCCCCC/C=C\CCCCCCCCCC(=O)N[C@H]1[C@H](OC[C@H]2O[C@H](OP(=O)([O-])[O-])[C@H](NC(=O)CC(=O)CCCCCCCCCCC)[C@@H](OCCCCCCCCCC)[C@@H]2O)O[C@H](COC)[C@@H](OP(=O)([O-])[O-])[C@@H]1OCC[C@@H](CCCCCCC)OC.[Na+].[Na+].[Na+].[Na+] [eritoran tetrasodium]
- Pam3Cys-induced IL-8 production (TLR2 [1]): no effect
- TUNEL positive cells in the corneal epithelium (corneal epithelium; 2.2 μg prior to LPS, presence or absence of LPS): no TUNEL positive cells
- pro-apoptotic effect (corneal epithelium; 2.2 μg, corneal epithelium): no pro-apoptotic effect
- CXCL1/KC in Pam3Cys-stimulated corneas (TLR2 [2]): no difference
- LPS-induced IL-8 production (TLR4 [3]): significantly reduced
- LPS-induced IL-8 production (TLR4 [3]; listed as Eritoran): dose dependent inhibition
- concentration that inhibited LPS-induced IL-8 (TLR4 [3]; macrophage cell line (U937)): 1 ng/mL
- Pam3Cys-induced IL-8 production (TLR2 [4]): no effect
- LPS-induced IL-8 production (TLR4 [5]): significantly reduced
- LPS-induced IL-8 production (TLR4 [5]; listed as Eritoran): dose dependent inhibition
- concentration that inhibited LPS-induced IL-8 (TLR4 [5]; neutrophil cell line (HL-60)): 1 ng/mL
- LPS-induced corneal haze (TLR4 [6]): significantly reduced
- LPS-induced neutrophil infiltration (TLR4 [6]): significantly inhibited; also recorded: significantly reduced
- cellular infiltrate in the central corneal stroma (TLR4 [6]): minimal cellular infiltrate
- concentration needed to reduce neutrophil numbers by 50% (TLR4 [6]): 0.35 mg/mL
- effect on neutrophil numbers at concentrations lower than 1.1 mg/ml (TLR4 [6]): no significant effect
- minimum inhibitory concentration (TLR4 [6]): 350 µg/mL
- neutrophil numbers per corneal section (TLR4 [6]): dose-dependent reduction
- second application after 3 h versus single treatment (TLR4 [6]): no significant difference
- neutrophil infiltration (TLR2 [7]; [11]): no effect
- total reflectivity (TLR2 [7]; [11]): no effect
- Pam3Cys/TLR2-induced corneal inflammation (TLR2 [7]; topical pre-treatment): no effect
- Pam3Cys-induced IL-8 production (TLR2 [8]): no effect
- corneal haze (TLR4/MD-2): significantly inhibited
- corneal thickness (TLR4/MD-2): significantly inhibited
- neutrophil infiltration (TLR4/MD-2): significantly inhibited
- CXCL1/KC in LPS-stimulated corneas (TLR4 [9]): significantly inhibited
- LPS-induced IL-8 production (TLR4 [10]): significantly reduced
- LPS-induced IL-8 production (TLR4 [10]; listed as Eritoran): dose dependent inhibition
- dose required to inhibit LPS-induced IL-8, relative to macrophage and neutrophil lines (TLR4 [10]; human corneal epithelial cells with exogenous MD-2): required higher doses

Compound: Rhodobacter sphaeroides lipid A [RSLA]
- antagonistic activity for other Gram negative Lipid A (Gram negative Lipid A): pronounced antagonistic activity
- agonist activity (Gram negative Lipid A; on some cell types): only minor agonist activity
